Tests used:
[1] = In vivo metabolites in rat urine and feces by UPLC-Q-TOF-MS/MS; settings: rats; for metabolite detected in feces: TNBG-5602 i.v. 4.8 mg kg^−1, feces 0-24 h
Method: An Exion LC^TM AC UPLC system (AB Sciex, Framingham, MA, USA) coupled with an […] Q-TOF tandem mass spectrometer was used for qualitative analysis in this study. Chromatographic separation was carried out on an ACQUITY UPLC HSS T3 column (2.1 × 75 mm, 1.8 μm, Waters, Wexford, Ireland). […] The column temperature was set to 35 °C. The injection volume was 5 μL. A full scan was performed over m/z 100-1000 for precursor ions in positive mode with a spray voltage of 5.5 kV, collision energy (CE) of 35 V, CE spread of 15 V, and accumulation time of 0.05 s. The Q-TOF scan for product ions was performed over m/z 100-1200 with CE 10 V and an accumulation time of 0.1 s. For the structural identification of metabolites, the UPLC-Q-TOF-MS/MS data were acquired and processed via SCIEX OS (Version 1.7, AB Sciex, Redwood City, CA, USA). The raw data files were imported into SCIEX OS 2.1 to search for and identify the metabolites of TNBG-5602. Identification of the chemical structure included two steps. The first step was automatic prediction, while the second step was manual validation. In Step 1, the candidate metabolites were predicted by the software based on the typical metabolic reactions of the templates. In Step 2, an ion chromatogram was extracted to screen candidate metabolites with mass tolerance within 5 ppm, using blank samples for the subtraction of the background. Then, the MS/MS fragment ions were extracted for the structural confirmation of candidate metabolites. […] The urine and feces samples were collected before administration (0 h) and at 8, 12, and 24 h after intravenous injection. The urine samples were vortex mixed with acetonitrile at a ratio of 1:3 (v/v) for 15 min. The mixture was then centrifuged at 15,000 rpm for 10 min, and the supernatant was dried using a gentle flow of nitrogen. The residue was dissolved in acetonitrile and vortex mixed again. The supernatant was dried again and re-dissolved in 0.1% aqueous formic acid: acetonitrile (50:50, v/v). The treated sample solutions were stored at -20 °C until analysis. A 5 μL aliquot of the thawed sample solution was injected into the UPLC-Q-TOF-MS/MS device to analyze the metabolites. The feces samples were homogenized with pure water at a ratio of 1:1 (w/w). The homogenate was vortex mixed with acetonitrile at a ratio of 1:3 (w/v) for 15 min. The mixture was then centrifuged at 15,000 rpm for 10 min, and the supernatant was dried using a gentle flow of nitrogen. The residue was dissolved with acetonitrile and vortex mixed again. The supernatant was dried again and re-dissolved in 0.1% aqueous formic acid: acetonitrile (50:50, v/v). The treated sample solutions were stored at -20 °C until analysis. A 5-μL aliquot of the thawed sample solution was injected into the UPLC-Q-TOF-MS/MS device to analyze the metabolites.

CYP3A4 = molecular target: T1, CYP3A4 (Homo sapiens, UniProt P08684); assay: Metabolite formation on incubation with recombinant CYP; type: in vitro ADME; settings: TNBG-5602 5 μg mL^−1, recombinant CYP 0.025 μM, 37 °C, 60 min
T1 construct: purchased IPHASE
Method: (§1) An Exion LC^TM AC UPLC system (AB Sciex, Framingham, MA, USA) coupled with an […] Q-TOF tandem mass spectrometer was used for qualitative analysis in this study. Chromatographic separation was carried out on an ACQUITY UPLC HSS T3 column (2.1 × 75 mm, 1.8 μm, Waters, Wexford, Ireland). […] The column temperature was set to 35 °C. The injection volume was 5 μL. A full scan was performed over m/z 100-1000 for precursor ions in positive mode with a spray voltage of 5.5 kV, collision energy (CE) of 35 V, CE spread of 15 V, and accumulation time of 0.05 s. The Q-TOF scan for product ions was performed over m/z 100-1200 with CE 10 V and an accumulation time of 0.1 s. For the structural identification of metabolites, the UPLC-Q-TOF-MS/MS data were acquired and processed via SCIEX OS (Version 1.7, AB Sciex, Redwood City, CA, USA). The raw data files were imported into SCIEX OS 2.1 to search for and identify the metabolites of TNBG-5602. Identification of the chemical structure included two steps. The first step was automatic prediction, while the second step was manual validation. In Step 1, the candidate metabolites were predicted by the software based on the typical metabolic reactions of the templates. In Step 2, an ion chromatogram was extracted to screen candidate metabolites with mass tolerance within 5 ppm, using blank samples for the subtraction of the background. Then, the MS/MS fragment ions were extracted for the structural confirmation of candidate metabolites. The stock solution of TNBG-5602 ([…]) was prepared using 0.1% aqueous formic acid. Then, the stock solution was diluted with PBS buffer to make the working solution of TNBG-5602 (1 mg mL^-1). The working solution of TNBG-5602 was incubated with CYP2D6, CYP3A4, CYP2C9, and CYP4V2 recombinant cytochrome enzymes, respectively. The total incubation volume for each reaction was 200 μL, containing TNBG-5602 (final concentration: 5 μg mL^-1), cytochrome P450s (final concentration: 0.025 μM), 3.3 mM MgCl2, 1.3 mM NADPH, 3.3 mM glucose-6-phosphate, 0.4 U mL^-1 glucose-6-phosphate dehydrogenase, and 0.05 mM sodium citrate. The cytochrome P450s were thawed on an ice bath and pre-incubated at 37 °C for 5 min. The mixtures were pre-incubated at 37 °C for 5 min before adding NADPH to initiate the reaction. NADPH was pre-incubated at 37 °C for 5 min and then added into the incubation system to initiate the reaction. The incubation periods were 60 min, and the reactions were quenched by adding 200 μL of iced acetonitrile. The samples were centrifuged (12,000× g rpm, 4 °C) for 10 min, and the supernatant was analyzed via the qualitative LC-MS/MS method. Blank samples in the absence of TNBG-5602 were incubated and followed by the same treatment.

CYP2D6 = molecular target: T2, CYP2D6 (Homo sapiens, UniProt P10635); assay: as above; type: in vitro ADME; settings: TNBG-5602 5 μg mL^−1, recombinant CYP 0.025 μM, 37 °C, 60 min
T2 construct: purchased IPHASE
Method: as §1

CYP2C9 = molecular target: T3, CYP2C9 (Homo sapiens, UniProt P11712); assay: as above; type: in vitro ADME; settings: TNBG-5602 5 μg mL^−1, recombinant CYP 0.025 μM, 37 °C, 60 min
T3 construct: purchased IPHASE
Method: as §1

CYP4V2 = molecular target: T4, CYP4V2 (Homo sapiens, UniProt Q6ZWL3); assay: as above; type: in vitro ADME; settings: TNBG-5602 5 μg mL^−1, recombinant CYP 0.025 μM, 37 °C, 60 min
T4 construct: purchased Abnova P01
T4 sequence (Q6ZWL3 1-525): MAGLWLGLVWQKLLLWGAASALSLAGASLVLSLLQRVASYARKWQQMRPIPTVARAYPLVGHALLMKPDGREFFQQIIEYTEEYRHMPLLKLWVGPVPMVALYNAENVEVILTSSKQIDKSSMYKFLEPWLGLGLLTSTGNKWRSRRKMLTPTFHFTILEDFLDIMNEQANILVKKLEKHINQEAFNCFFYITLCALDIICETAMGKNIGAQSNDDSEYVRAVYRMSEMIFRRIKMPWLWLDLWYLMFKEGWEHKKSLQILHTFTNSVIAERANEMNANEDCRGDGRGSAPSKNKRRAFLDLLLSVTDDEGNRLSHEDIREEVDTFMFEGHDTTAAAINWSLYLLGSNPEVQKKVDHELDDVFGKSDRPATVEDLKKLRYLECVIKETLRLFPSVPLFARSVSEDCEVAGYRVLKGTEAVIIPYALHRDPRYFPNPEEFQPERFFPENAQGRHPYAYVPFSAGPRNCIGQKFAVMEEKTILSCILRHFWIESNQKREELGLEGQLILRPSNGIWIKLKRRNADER
Method: as §1

T1 sequence (P08684 whole entry): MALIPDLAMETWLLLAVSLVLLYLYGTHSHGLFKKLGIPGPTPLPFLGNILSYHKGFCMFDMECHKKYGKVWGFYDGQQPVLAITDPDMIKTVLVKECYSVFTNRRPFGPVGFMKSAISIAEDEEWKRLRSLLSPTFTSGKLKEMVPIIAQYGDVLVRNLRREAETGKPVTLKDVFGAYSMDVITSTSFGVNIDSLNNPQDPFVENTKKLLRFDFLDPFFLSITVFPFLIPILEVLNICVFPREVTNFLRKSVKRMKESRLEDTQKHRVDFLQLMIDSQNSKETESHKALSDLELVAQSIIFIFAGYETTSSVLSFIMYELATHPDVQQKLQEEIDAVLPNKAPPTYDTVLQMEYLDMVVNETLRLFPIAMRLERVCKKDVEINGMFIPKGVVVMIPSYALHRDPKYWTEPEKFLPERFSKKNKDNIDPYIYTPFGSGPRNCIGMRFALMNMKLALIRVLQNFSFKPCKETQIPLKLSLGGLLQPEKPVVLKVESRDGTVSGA
T2 sequence (P10635 whole entry): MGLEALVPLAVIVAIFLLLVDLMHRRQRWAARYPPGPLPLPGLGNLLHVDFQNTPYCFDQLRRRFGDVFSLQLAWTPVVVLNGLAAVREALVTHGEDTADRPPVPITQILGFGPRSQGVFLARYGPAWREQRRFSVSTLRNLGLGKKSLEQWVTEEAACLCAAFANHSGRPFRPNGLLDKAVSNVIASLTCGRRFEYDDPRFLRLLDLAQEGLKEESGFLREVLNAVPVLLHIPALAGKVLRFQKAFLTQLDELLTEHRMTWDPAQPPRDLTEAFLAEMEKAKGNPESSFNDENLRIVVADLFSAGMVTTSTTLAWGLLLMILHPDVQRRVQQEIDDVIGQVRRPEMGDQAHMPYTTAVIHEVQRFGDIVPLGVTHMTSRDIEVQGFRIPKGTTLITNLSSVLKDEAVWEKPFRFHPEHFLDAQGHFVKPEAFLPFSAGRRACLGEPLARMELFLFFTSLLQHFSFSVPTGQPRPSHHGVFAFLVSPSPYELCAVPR
T3 sequence (P11712 whole entry): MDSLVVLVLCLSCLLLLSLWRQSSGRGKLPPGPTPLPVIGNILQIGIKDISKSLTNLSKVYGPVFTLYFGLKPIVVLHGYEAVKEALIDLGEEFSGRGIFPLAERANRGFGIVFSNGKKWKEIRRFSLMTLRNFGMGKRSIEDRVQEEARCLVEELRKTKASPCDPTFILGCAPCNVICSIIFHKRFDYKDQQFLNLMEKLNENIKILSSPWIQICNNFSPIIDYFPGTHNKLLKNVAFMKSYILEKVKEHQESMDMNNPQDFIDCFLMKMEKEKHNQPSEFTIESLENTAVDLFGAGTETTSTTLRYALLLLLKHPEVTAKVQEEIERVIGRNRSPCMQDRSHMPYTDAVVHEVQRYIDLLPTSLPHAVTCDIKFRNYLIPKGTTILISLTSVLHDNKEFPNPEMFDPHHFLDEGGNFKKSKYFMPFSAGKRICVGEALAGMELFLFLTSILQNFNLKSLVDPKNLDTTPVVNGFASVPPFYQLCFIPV

rank of metabolite in the feces (major/minor) ([1]; TNBG-5602 i.v.)	metabolite detected in feces [1]	rank of metabolite in the urine ([1]; TNBG-5602 i.v.)	metabolite detected in urine ([1]; TNBG-5602 i.v. 4.8 mg kg^−1, urine 0-24 h)	metabolite detected after incubation with CYP3A4 (CYP3A4)	metabolite detected after incubation with CYP2D6 (CYP2D6)	metabolite detected after incubation with CYP2C9 (CYP2C9)	metabolite detected after incubation with CYP4V2 (CYP4V2)	Structure (SMILES)
minor	×	–	–	–	–	–	–	CN(C=O)CCN1CC2c3ccccc3CCN2c2nc3ccccc3nc21 (centres unmarked) [M8]
minor	×	–	–	–	–	–	–	CN1CCN2CC3c4ccccc4CCN3C3=Nc4ccccc4NC312 (centres unmarked) [M6]
minor	×	–	–	–	–	–	–	c1ccc2c(c1)CCN1c3nc4ccccc4nc3N(CCN3COC3)CC21 (centres unmarked) [M7]
major	present and ×	main	present and ×	obtained and ×	observed and ×	found and ×	found and ×	CNCCN1CC2c3ccccc3CCN2c2nc3ccccc3nc21 (centres unmarked) [M5]

Source: paper PMC9024597, “The Biological Fate of a Novel Anticancer Drug Candidate TNBG-5602: Metabolic Profile, Interaction with CYP450, and Pharmacokinetics in Rats” (Molecules, 2022)
